Laboratory results published in patent publication US20260165350A1, “FLAVONOID COMPOSITIONS AND USES THEREOF” (FIRMENICH SA, priority 2022, published 2026).

Assays:
Assay type in all cases: physicochemical
[1] = Stability of naringenin solutions stored three months at room temperature; parameters: key: X: dissolved; *: reprecipitated
From the text: (§1) Naringenin was mixed with different solvents and heated until the product has completely dissolved. Subsequently, the samples were left to cool down to room temperature and stored over a period of three months.

[2] = as above; parameters: key: X: Dissolved; ◯: Partially dissolved, with sediments observed; #: Not dissolved; *: reprecipitated; details: n-Propyl alcohol
From the text: as §1

[3] = Solvent comparison: visual observation of naringenin dissolution, reassessed after three months; parameters: key: X: Dissolved; ◯: Partially dissolved, with sediments observed; #: Not dissolved; *: reprecipitated
Procedure: Several solvents and solvent blends were prepared after which a measured amount of naringenin was added and mechanically agitated. Each mixture was then visually observed for dissolution. All samples were stored at room temperature protected from direct light and were reassessed for stability after a period of three months.

[4] = Solubility at 25° C. from transparency during a heating ramp (Crystalline PV), exponential fit
Procedure: Naringenin was mixed with different solvents and mixtures of solvent and transferred to an 8-mL vial equipped with an overhead stirrer. The sample was placed in a Crystalline PV instrument (Technobis, The Netherlands). A heating step was carried with a heating ramp of +0.1° C./min under mechanical stirring, and the samples were monitored by following transparency via a LED light beam that passes through the vial. Full (100%) transparency is attained when Naringenin is completely dissolved in the solvent. On the other hand, when the measured values of transparency are below 100% the dissolution process is still incomplete. Once the signal has attained 100% transparency, the dissolution process was complete and the respective temperature was taken as the solubilization temperature.
For each solvent or mixture of solvent, the measured solubility as a function of temperature has been fitted to an exponential function. The solubility at 25° C. was obtained by extrapolation or interpolation of this exponential function.
The same method as described in Example 3 was used to determine the solubility of Phloretin at 25° C.

[5] = n-Propyl alcohol, 4% of Naringenin
[6] = n-Propyl alcohol, 5% of Naringenin
[7] = n-Propyl alcohol, 6% of Naringenin
[8] = (D)-Carvone, naringenin 15% (w/w)
[9] = (L)-Carvone + isopropyl alcohol (50:50), naringenin 10% (w/w)
[10] = (L)-Carvone, naringenin 10% (w/w)
[11] = Carvone + isopropyl alcohol + benzyl alcohol (20:40:40), naringenin 10% (w/w)
[12] = Ethanol + benzyl alcohol (50:50), naringenin 10% (w/w)
[13] = Ethyl lactate + Glycerol 20%, naringenin 10% (w/w)
[14] = Ethyl lactate, naringenin 10% (w/w)
[15] = Isopropyl alcohol + benzyl alcohol (50:50), naringenin 10% (w/w)
[16] = Isopropyl alcohol, naringenin 10% (w/w)
[17] = Lactic acid, naringenin 5% (w/w)
[18] = Mint Spicata (60% Carvone), naringenin 6% (w/w)
[19] = Mint Spicata China (80% Carvone) + isopropyl alcohol (60:40), naringenin 15% (w/w)
[20] = Mint Spicata China (80% Carvone), naringenin 10% (w/w)
[21] = Propanol NAT, naringenin 6% (w/w)
[22] = Propylene glycol, naringenin 10% (w/w)
[23] = (L)-Carvone 50% + Isopropyl alcohol 50%

## O=C1C[C@@H](c2ccc(O)cc2)Oc2cc(O)cc(O)c21 [Naringenin, naringenin]
[1]; (L)-Carvone, 4% of Naringenin
  Solution state (after three months at RT): X
  Solution state (right after heating): X
[1]; (L)-Carvone, 5% of Naringenin
  Solution state (after three months at RT): X
  Solution state (right after heating): X
[1]; (L)-Carvone, 6% of Naringenin
  Solution state (after three months at RT): X
  Solution state (right after heating): X
[1]; (L)-Carvone, 8% of Naringenin
  Solution state (after three months at RT): X
  Solution state (right after heating): X
[1]; (L)-Carvone, 10% of Naringenin
  Solution state (after three months at RT): X
  Solution state (right after heating): X
[1]; (L)-Carvone, 12% of Naringenin
  Solution state (after three months at RT): X
  Solution state (right after heating): X
[1]; [5]
  Solution state (after three months at RT): X
  Solution state (right after heating): X
[1]; [6]
  Solution state (after three months at RT): X
  Solution state (right after heating): X
[1]; [7]
  Solution state (after three months at RT): X
  Solution state (right after heating): X
[1]; n-Propyl alcohol, 8% of Naringenin
  Solution state (right after heating): X
[1]; n-Propyl alcohol, 10% of Naringenin
  Solution state (right after heating): X
[1]; n-Propyl alcohol, 12% of Naringenin
  Solution state (right after heating): X
[2]; 8% of Naringenin
  Solution state (after three months at RT): *
[2]; 10% of Naringenin
  Solution state (after three months at RT): *
[2]; 12% of Naringenin
  Solution state (after three months at RT): *
[3]; [8]
  Observation: X
  Observation (after 3 months at RT): X
[3]; [9]
  Observation: X
  Observation (after 3 months at RT): X
[3]; [10]
  Observation: X
  Observation (after 3 months at RT): X
[3]; [11]
  Observation: X
  Observation (after 3 months at RT): X
[3]; [12]
  Observation: X
  Observation (after 3 months at RT): *
[3]; [13]
  Observation: ◯
  Observation (after 3 months at RT): ◯
[3]; [14]
  Observation: #
  Observation (after 3 months at RT): #
[3]; Glycerol, naringenin 5% (w/w)
  Observation: #
  Observation (after 3 months at RT): #
[3]; [15]
  Observation: X
  Observation (after 3 months at RT): *
[3]; [16]
  Observation: #
  Observation (after 3 months at RT): #
[3]; [17]
  Observation: #
  Observation (after 3 months at RT): #
[3]; [18]
  Observation: X
  Observation (after 3 months at RT): X
[3]; [19]
  Observation: X
  Observation (after 3 months at RT): X
[3]; [20]
  Observation: X
  Observation (after 3 months at RT): X
[3]; [21]
  Observation: ◯
  Observation (after 3 months at RT): ◯
[3]; [22]
  Observation: #
  Observation (after 3 months at RT): #
[4]; (D)-Carvone 100%
  Solubility of Naringenin at 25° C. (%): 8.5%
[4]; (L)-Carvone 30% + n-Propyl alcohol 70%
  Solubility of Naringenin at 25° C. (%): 11.7%
[4]; (L)-Carvone 50% + Ethanol 50%
  Solubility of Naringenin at 25° C. (%): 18.7%
[4]; [23]
  Solubility of Naringenin at 25° C. (%): 16.6%
[4]; (L)-Carvone 50% + Propylene glycol 50%
  Solubility of Naringenin at 25° C. (%): 13.0%
[4]; (L)-Carvone 50% + n-Propyl alcohol 50%
  Solubility of Naringenin at 25° C. (%): 14.9%
[4]; (L)-Carvone 70% + n-Propyl alcohol 30%
  Solubility of Naringenin at 25° C. (%): 15.7%
[4]; (L)-Carvone 90% + n-Propyl alcohol 10%
  Solubility of Naringenin at 25° C. (%): 13.0%
[4]; (L)-Carvone 100%
  Solubility of Naringenin at 25° C. (%): 8.5%
[4]; Benzyl alcohol 100%
  Solubility of Naringenin at 25° C. (%): 3.9%
[4]; Ethyl lactate 100%
  Solubility of Naringenin at 25° C. (%): 5.3%
[4]; Eucalyptol 100%
  Solubility of Naringenin at 25° C. (%): 1.2%
[4]; Glycerol 100%
  Solubility of Naringenin at 25° C. (%): 0.1%
[4]; Isopropyl alcohol 50% + Benzyl alcohol 50%
  Solubility of Naringenin at 25° C. (%): 6.9%
[4]; Isopropyl alcohol 100%
  Solubility of Naringenin at 25° C. (%): 5.2%
[4]; Limonene 100%
  Solubility of Naringenin at 25° C. (%): <0.1%
[4]; Mint Spicata (80% carvone) 50% + Propylene glycol 50%
  Solubility of Naringenin at 25° C. (%): 12.0%
[4]; Mint Spicata (80% carvone) 60% + Isopropyl alcohol 40%
  Solubility of Naringenin at 25° C. (%): 15.4%
[4]; Mint Spicata (80% carvone) 100%
  Solubility of Naringenin at 25° C. (%): 7.5%
[4]; Neobee 100%
  Solubility of Naringenin at 25° C. (%): 0.1%
[4]; Propylene glycol 100%
  Solubility of Naringenin at 25° C. (%): 3.6%
[4]; Triethyl citrate 100%
  Solubility of Naringenin at 25° C. (%): 1.7%
[4]; n-Propyl alcohol 100%
  Solubility of Naringenin at 25° C. (%): 4.2%

## O=C(CCc1ccc(O)cc1)c1c(O)cc(O)cc1O [Phloretin, phloretin]
[4]; (L)-Carvone 50% + Ethanol 50%
  Solubility of Phloretin at 25° C. (%): 21.9%
[4]; [23]
  Solubility of Phloretin at 25° C. (%): 22.8%
[4]; (L)-Carvone 100%
  Solubility of Phloretin at 25° C. (%): 7.7%
[4]; Ethanol 100%
  Solubility of Phloretin at 25° C. (%): 15.9%
[4]; Isopropyl alcohol 100%
  Solubility of Phloretin at 25° C. (%): 12.7%
[4]; Propylene glycol 100%
  Solubility of Phloretin at 25° C. (%): 8.9%
